From the NIST ThermoML archive (doi:10.1016/j.jct.2017.06.014) come the findings set out here.

Numbers after ± are expanded uncertainties.

The conditions of the series: Liquid, Ebulliometric method (Recirculating still).

Turning to `CCCO` [propan-1-ol], the “vapor or sublimation pressure” value (370.35 K) is 101.3 ± 1.1 kPa.
As for `O` [water], the “vapor or sublimation pressure” value (373.15 K) is given as 101.3 ± 1.1 kPa.
